Experimental data reported in publication PMC12136037, “Type II kinase inhibitors that target Parkinson’s disease–associated LRRK2” (Science Advances, 2025).

Tests used:
Test in all cases: DSF 100 kinase selectivity screen;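 further: compound tested at 20 µM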
Type in all cases: binding
[1] = biological target: T1, ~100 representative kinases (Homo sapiens, UniProt P24941); details: Protein CDK2; average of three replicates
T1 construct: Recombinant protein kinase domains with a concentration of 2 μM
Protocol: (§1) Recombinant protein kinase domains with a concentration of 2 μM were mixed with a 20 μM compound solution in dimethyl sulfoxide (DMSO), 20 mM Hepes (pH 7.5), and 500 mM NaCl. SYPRO Orange (5000×, Invitrogen) was added as a fluorescence probe (1μl/ml). Subsequently, temperature-dependent protein unfolding profiles were measured using the QuantStudio 5 realtime PCR machine (Thermo Fisher Scientific, Waltham, MA, USA). […] The temperature was raised with a step rate of 3°C/min. […] Differences in melting temperature are given as ΔTm values in degrees Celsius. […]

[2] = biological target: T2, ~100 representative kinases (Homo sapiens, UniProt P49761); details: Protein CLK3; average of three replicates
T2 construct: Recombinant protein kinase domains with a concentration of 2 μM
Protocol: as §1

[3] = biological target: T3, ~100 representative kinases (Homo sapiens, UniProt P51813); details: Protein BMX; average of three replicates
T3 construct: Recombinant protein kinase domains with a concentration of 2 μM
T3 sequence (P51813 1-675): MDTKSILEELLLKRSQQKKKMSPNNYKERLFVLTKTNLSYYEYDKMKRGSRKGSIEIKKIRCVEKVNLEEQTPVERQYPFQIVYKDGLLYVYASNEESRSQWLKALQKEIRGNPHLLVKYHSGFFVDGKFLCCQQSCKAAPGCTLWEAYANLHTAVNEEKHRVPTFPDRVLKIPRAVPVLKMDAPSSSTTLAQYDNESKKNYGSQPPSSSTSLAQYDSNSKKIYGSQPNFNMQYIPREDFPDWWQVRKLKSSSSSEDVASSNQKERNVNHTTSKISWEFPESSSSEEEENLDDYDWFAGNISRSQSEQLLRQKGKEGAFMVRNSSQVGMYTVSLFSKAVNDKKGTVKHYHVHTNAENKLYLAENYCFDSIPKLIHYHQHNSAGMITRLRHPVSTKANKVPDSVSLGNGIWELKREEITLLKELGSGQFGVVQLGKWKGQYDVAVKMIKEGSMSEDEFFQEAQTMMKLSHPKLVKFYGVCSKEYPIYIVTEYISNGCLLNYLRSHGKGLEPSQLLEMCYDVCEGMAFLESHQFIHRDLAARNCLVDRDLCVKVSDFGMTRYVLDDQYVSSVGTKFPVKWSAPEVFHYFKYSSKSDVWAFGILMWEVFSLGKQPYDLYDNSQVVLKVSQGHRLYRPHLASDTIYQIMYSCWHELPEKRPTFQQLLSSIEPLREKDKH
Protocol: as §1

[4] = biological target: T4, ~100 representative kinases (Homo sapiens, UniProt Q00536); details: protein PCTK1; average of three replicates
T4 construct: Recombinant protein kinase domains with a concentration of 2 μM
Protocol: as §1

[5] = biological target: T5, ~100 representative kinases (Homo sapiens, UniProt Q8TF76); details: protein GSG2; average of three replicates
T5 construct: Recombinant protein kinase domains with a concentration of 2 μM
T5 sequence (Q8TF76 1-798): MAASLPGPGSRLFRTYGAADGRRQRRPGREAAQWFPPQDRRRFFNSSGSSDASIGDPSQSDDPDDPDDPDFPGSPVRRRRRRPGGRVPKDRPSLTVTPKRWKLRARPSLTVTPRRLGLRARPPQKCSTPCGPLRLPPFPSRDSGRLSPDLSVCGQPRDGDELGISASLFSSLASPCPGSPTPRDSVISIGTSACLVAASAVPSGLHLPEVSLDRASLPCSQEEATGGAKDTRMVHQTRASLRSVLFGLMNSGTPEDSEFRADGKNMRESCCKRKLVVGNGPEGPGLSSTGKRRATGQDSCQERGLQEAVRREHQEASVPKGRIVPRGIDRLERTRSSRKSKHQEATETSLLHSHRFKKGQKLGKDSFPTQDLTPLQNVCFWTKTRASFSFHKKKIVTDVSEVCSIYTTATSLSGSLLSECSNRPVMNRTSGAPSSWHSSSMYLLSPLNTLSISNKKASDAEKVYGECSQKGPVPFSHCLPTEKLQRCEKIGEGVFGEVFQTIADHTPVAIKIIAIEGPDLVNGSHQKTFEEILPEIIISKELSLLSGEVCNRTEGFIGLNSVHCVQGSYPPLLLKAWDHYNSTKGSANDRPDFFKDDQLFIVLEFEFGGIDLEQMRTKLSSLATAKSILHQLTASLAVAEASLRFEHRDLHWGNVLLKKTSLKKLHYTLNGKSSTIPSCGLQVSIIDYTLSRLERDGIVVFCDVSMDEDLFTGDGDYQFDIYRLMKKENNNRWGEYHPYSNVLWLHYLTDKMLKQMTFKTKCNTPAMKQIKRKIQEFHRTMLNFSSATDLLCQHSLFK
Protocol: as §1

[6] = biological target: T6, ~100 representative kinases (Homo sapiens, UniProt Q99986); details: Protein VRK1; DSF; average of three replicates
T6 construct: Recombinant protein kinase domains with a concentration of 2 μM
T6 sequence (Q99986 1-396): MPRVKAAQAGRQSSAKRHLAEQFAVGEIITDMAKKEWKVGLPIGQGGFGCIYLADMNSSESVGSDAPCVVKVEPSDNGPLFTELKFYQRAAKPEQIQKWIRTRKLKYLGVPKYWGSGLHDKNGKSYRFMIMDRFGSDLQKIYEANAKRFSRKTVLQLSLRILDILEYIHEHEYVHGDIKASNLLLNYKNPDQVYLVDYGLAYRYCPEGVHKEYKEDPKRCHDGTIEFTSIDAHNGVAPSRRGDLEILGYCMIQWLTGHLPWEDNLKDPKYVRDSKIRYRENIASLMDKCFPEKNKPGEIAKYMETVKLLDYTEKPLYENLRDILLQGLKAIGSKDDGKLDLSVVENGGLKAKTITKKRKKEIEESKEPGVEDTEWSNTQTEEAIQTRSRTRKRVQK
Protocol: as §1

[7] = biological target: T7, ~100 representative kinases (Homo sapiens, UniProt Q9UEW8); details: Protein STK39; DSF; average of three replicates
T7 construct: Recombinant protein kinase domains with a concentration of 2 μM
Protocol: as §1

T4 sequence (Q00536 whole entry, the tested form may be a part): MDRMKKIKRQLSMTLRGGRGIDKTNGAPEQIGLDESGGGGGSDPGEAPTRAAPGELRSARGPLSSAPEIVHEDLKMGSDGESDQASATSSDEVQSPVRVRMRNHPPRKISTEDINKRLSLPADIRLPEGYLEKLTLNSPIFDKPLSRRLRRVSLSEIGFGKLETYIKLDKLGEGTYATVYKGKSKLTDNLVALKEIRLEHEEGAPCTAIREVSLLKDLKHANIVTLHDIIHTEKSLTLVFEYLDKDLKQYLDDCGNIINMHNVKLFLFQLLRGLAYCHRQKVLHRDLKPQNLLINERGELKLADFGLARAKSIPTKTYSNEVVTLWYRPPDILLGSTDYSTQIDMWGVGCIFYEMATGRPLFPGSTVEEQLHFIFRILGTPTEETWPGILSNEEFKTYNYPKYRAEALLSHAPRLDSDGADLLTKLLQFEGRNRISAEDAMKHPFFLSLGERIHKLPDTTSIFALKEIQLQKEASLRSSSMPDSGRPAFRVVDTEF
T2 sequence (P49761 whole entry, the tested form may be a part): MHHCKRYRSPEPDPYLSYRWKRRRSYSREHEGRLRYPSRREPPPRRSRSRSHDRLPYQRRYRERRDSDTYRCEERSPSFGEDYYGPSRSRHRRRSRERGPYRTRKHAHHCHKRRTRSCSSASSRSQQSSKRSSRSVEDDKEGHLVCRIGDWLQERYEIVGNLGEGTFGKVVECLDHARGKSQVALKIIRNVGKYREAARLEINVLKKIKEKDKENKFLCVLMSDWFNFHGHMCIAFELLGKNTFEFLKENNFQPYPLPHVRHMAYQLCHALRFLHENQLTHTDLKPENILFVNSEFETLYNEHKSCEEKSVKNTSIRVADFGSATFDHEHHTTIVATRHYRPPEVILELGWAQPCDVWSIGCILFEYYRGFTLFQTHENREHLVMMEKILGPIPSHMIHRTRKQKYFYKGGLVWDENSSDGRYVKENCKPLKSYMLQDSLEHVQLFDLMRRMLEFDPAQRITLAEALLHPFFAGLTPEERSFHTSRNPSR

| Compound | dTm [1] | dTm [2] | dTm [3] | dTm [4] | dTm [5] | dTm [6] | dTm [7] |
| --- | --- | --- | --- | --- | --- | --- | --- |
| O=C(Nc1ccc(Cl)cc1)C1(C(=O)Nc2cccc(-c3c[nH]c4ncnc(N5CCOCC5)c34)c2)CC1 [Compound 13] | 8.33 K | 4.87 K | 0.67 K | 9.13 K | 0.82 K | 2.20 K | 2.32 K |
| Cc1ccc(-n2nc(C(C)(C)C)cc2NC(=O)Nc2cccc(-c3c[nH]c4ncnc(N5CCOCC5)c34)c2)cc1 [Compound 29] | 12.74 K | 14.57 K | 2.21 K | 16.54 K | -2.91 K | -0.55 K | 6.45 K |
| O=C(Nc1cccc(-c2c[nH]c3ncnc(N4CCOCC4)c23)c1)C1(C(=O)Nc2ccc(F)c(Br)c2)CC1 [Compound 19] | 7.42 K | 5.09 K | 0.24 K | 4.12 K | -2.45 K | 1.65 K | 1.45 K |
| O=C(Nc1cccc(-c2c[nH]c3ncnc(N4CCOCC4)c23)c1)C1(C(=O)Nc2ccc(F)c(Cl)c2)CC1 [Compound 18] | 6.75 K | 4.42 K | 1.13 K | 7.39 K | -3.25 K | 1.71 K | 2.24 K |
| COc1cc(S(C)(=O)=O)ccc1Nc1nc(N(C)C)c2c(Cl)c[nH]c2n1 [Compound 37] | -0.37 K | 1.12 K | -0.17 K | -0.043 K | 0.32 K | -0.55 K | 3.58 K |
| O=C(Nc1cccc(-c2c[nH]c3ncnc(N4CCOCC4)c23)c1)C1(C(=O)Nc2cc(Br)c(F)cc2F)CC1 [Compound 25] | 3.68 K | 2.08 K | 1.31 K | -0.86 K | -3.43 K | 1.24 K | -0.03 K |
| Cn1cc(-c2c[nH]c3ncnc(N4CCOCC4)c23)cc1C#N [PFE-360] | 0.68 K | 5.46 K | 0.47 K | 0.35 K | 2.32 K | 0.0159 K | -0.25 K |
| O=C(Nc1cccc(-c2c[nH]c3ncnc(N4CCOCC4)c23)c1)c1cccn(-c2ccc(F)cc2)c1=O [Compound 4] | 7.66 K | 2.86 K | 1.71 K | 7.66 K | -1.23 K | 1.12 K | 4.19 K |
| Cc1ccc(C(=O)Nc2ccc(CN3CCN(C)CC3)c(C(F)(F)F)c2)cc1C#Cc1c[nH]c2ncnc(N3CCOCC3)c12 [Compound 1] | 3.53 K | 4.76 K | 1.60 K | 1.60 K | 0.98 K | -0.0464 K | 3.69 K |
| O=C(Nc1ccc(F)cc1)C1(C(=O)Nc2cccc(-c3c[nH]c4ncnc(N5CCOCC5)c34)c2)CC1 [Compound 2] | 4.78 K | 3.15 K | 0.39 K | 5.80 K | -0.43 K | 0.75 K | 1.95 K |
| Cc1cc(NC(=O)C2(C(=O)Nc3ccc(F)cc3)CC2)cc(-c2c[nH]c3ncnc(N4CCOCC4)c23)c1 [Compound 6] | 2.92 K | 0.98 K | 0.51 K | 1.12 K | -1.48 K | 0.70 K | 1.36 K |
| O=C(Nc1cccc(-c2c[nH]c3ncnc(N4CCOCC4)c23)c1)C1(C(=O)Nc2ccc(F)c(Br)c2F)CC1 [Compound 26] | 3.97 K | 3.24 K | -0.35 K | -1.22 K | -2.00 K | 1.02 K | 0.00 K |
| Cc1cc(F)ccc1NC(=O)C1(C(=O)Nc2cccc(-c3c[nH]c4ncnc(N5CCOCC5)c34)c2)CC1 [Compound 24] | 3.87 K | 0.69 K | 0.32 K | 3.77 K | -2.81 K | 0.44 K | 0.71 K |
| CCSc1nc(NC)c2c(-c3cccc(NC(=O)Nc4cc(C(C)(C)C)nn4-c4ccc(C)cc4)c3)c[nH]c2n1 [Compound 32] | 0.83 K | 0.50 K | -0.26 K | 3.77 K | 0.63 K | -0.68 K | 0.77 K |
| O=C(Nc1cccc(-c2c[nH]c3ncnc(N4CCOCC4)c23)c1)C1(C(=O)Nc2cccc3c2CCC3)CC1 [Compound 11] | 4.66 K | 1.62 K | 1.17 K | 3.50 K | -2.96 K | 0.56 K | 1.05 K |
| CCc1ccc(NC(=O)C2(C(=O)Nc3cccc(-c4c[nH]c5ncnc(N6CCOCC6)c45)c3)CC2)cc1 [Compound 15] | 9.83 K | 2.88 K | 0.11 K | 9.05 K | -1.97 K | 1.12 K | 1.18 K |
| COc1ccc(NC(=O)C2(C(=O)Nc3cccc(-c4c[nH]c5ncnc(N6CCOCC6)c45)c3)CC2)cc1 [Compound 16] | 5.86 K | 0.51 K | -0.18 K | 5.58 K | -0.39 K | 0.60 K | -0.15 K |
| COc1cc(NC(=O)C2(C(=O)Nc3cccc(-c4c[nH]c5ncnc(N6CCOCC6)c45)c3)CC2)ccc1F [Compound 21] | 4.67 K | 3.11 K | 0.38 K | 6.37 K | -2.20 K | 0.93 K | 1.92 K |
| Cc1ccc(-n2nc(C(C)(C)C)cc2NC(=O)Nc2cccc(-c3c[nH]c4nc(Cl)nc(N5CCOCC5)c34)c2)cc1 [Compound 30] | 1.78 K | 3.71 K | -1.99 K | 3.37 K | -1.55 K | -1.13 K | 1.34 K |
